Source: US20230203060A1 (GENFLEET THERAPEUTICS (SHANGHAI) INC., priority 2020, published 2023)

Columns and labels:
[1] = test system: KRAS G12C mutant MIA PaCa-2 cells; experiment: Cell proliferation inhibition experiment, 3D spheroid, CellTiter-Glo, MIA PaCa-2; type: cell-based, human; conditions: Homo sapiens, MIA PaCa-2, 120 h, 3D cell model in 384-well spheroid plate, 5 days, CellTiter-Glo; read-out: MIA-PaCa2 IC50
Summary of the method: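 200 MIA PaCa-2 cells/well grown overnight as 3D spheroids, then exposed to 3.16-fold compound dilutions (0.1% DMSO final) for 5 days. Viability read by CellTiter-Glo luminescence; inhibition calculated against DMSO and medium-only controls, and IC50 fitted by four-parameter model.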

[2] = target: T1, KRAS G12C (Homo sapiens, UniProt P01116, G12C); experiment: KRAS G12C NEA-HTRF experiment (SOS1-catalyzed displacement of GDP by GTP); type: biochemical
T1 construct: purchased Reactionbiology
Summary of the method: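 His-tagged KRAS G12C preloaded with DY647-GDP was preincubated 15 min at 20 °C with compound, then exchanged with SOS1 (0.2 μM working solution) and GTP (200 μM working solution) for 2 h at 20 °C in the dark. HTRF 665/615 nm ratio with anti-His-Tb was normalised to T0 and no-compound controls; IC50 by four-parameter fit.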

T1 sequence (P01116 1-188 isoform P01116-2 G12C): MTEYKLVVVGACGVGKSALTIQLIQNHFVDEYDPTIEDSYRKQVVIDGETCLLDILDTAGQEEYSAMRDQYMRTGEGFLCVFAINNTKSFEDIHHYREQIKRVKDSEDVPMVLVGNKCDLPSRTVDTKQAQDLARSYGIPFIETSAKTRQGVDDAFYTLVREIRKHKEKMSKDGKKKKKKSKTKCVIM

SMILES | IC50 [1] [nM] | IC50 [2] [nM]
C=CC(=O)N1CCN2C(=O)c3c(N4CCN(C(C)=O)C[C@@H]4C)nc(-c4c(O)cccc4F)c(Cl)c3OC[C@H]2C1 [Z313-1] | 2.6 | 13
C=CC(=O)N1CCN2C(=O)c3c(N4C[C@@H](OC)CC4(C)C)nc(-c4c(O)cccc4F)c(Cl)c3OC[C@H]2C1 (single isomer, unassigned) [Z244-1] | 8 | 26
C=CC(=O)N1CCN2C(=O)c3c(N4CCC[C@@]4(C)CO)nc(-c4c(O)cccc4F)c(Cl)c3OC[C@H]2C1 [Z279-2] | 4.9 | 29
C=CC(=O)N1CCN2C(=O)c3c(N4CCN(C)C[C@@H]4C)nc(-c4c(O)ccc(Cl)c4F)c(Cl)c3OC[C@H]2C1 [Z343, (6aR)-8-acryloyl-4-chloro-3-(3-chloro-2-fluoro-6-hydroxyphenyl)-1-((S)-2,4-dimethylpiperazin-1-yl)-6,6a,7,8,9,10-hexahydro-12H-pyrazino[2,1-c]pyrido[3,4-f][1,4]oxazepin-12-one] | 18 | 101
